{
  "source": "patent US12239711B2",
  "about": "“Cereblon ligands and bifunctional compounds comprising the same” (Arvinas Operations, Inc., priority 2014, dated 2025)",
  "data": [
    {"system": "androgen receptor (AR)", "assay": "AR ELISA assay in LNCaP and/or VCaP cells", "type": "cell-based", "settings": "5 hours", "procedure": "4. AR ELISA Assay Protocol for Table 6\nCompounds were evaluated in this assay in LNCaP and/or VCaP cells utilizing similar protocols. The protocols used with VCaP cells are described below. The androgen receptor ELISA assay was performed using PathScani AR Sandwich ELISA (Cell Signaling Catalog #12850) according to the following assay steps:\nVCaP cells were seeded at 40,000 cells/well at a volume of 100 μL/well in VCaP assay medium [Phenol red free RPMI (Gibco Cat #11835-030); 5% Charcoal Stripped (Dextran treated) FBS (Omega Scientific, Cat #FB-04); 1% penstrep (Life Technologies, Gibco Cat #: 10378-016)] in Corning 3904 plates. The cells were incubated for a minimum of 3 days. Cells were dosed with PROTACs diluted in 0.01% DMSO and the drug treatment was allowed for 5 hours.\nAR ELISA (Cell Signaling) was performed as follows: 1× Cell Signaling Cell lysis buffer was made (Catalogue #9803; comes with the kit). Media from the treated wells is aspirated, and 100 μL 1× cell lysis buffer/well is added. The cells were placed on a shaker for 10 minutes at 4° C. Twenty microliters of lysate was transferred to 100 μl of Diluent in ELISA plate (0.15 μg/ml-0.075 μg/ml). The lysate-diluent mixture was shaken for 30 minutes at 37° C. Allow mouse AR antibody, anti-mouse antibody, TMB, and STOP solution to come to room temperature. The 1× ELISA buffer included in kit was made and loaded in the reservoir. Media from the plates was discarded, the ELISA plate tapped hard on paper towel, and washed 4×200 μl ELISA wash buffer using a plate washer.\nOne-hundred (100) μL/well of mouse AR detection Ab was added; the plates were covered and shaken at 37° C. for 1 hour; media was discarded from the plates, the plates were tapped on a paper towel, washed 4× with 200 μL ELISA wash buffer with a plate washer.\nOne-hundred (100) μL/well of anti-mouse—HRP conjugated Ab (comes with the kit) was added; the plates were covered and shaken at 37° C. for 30 minutes; the TMB reagent was allowed to come to room temperature; the media was discard from the plate, the plates were tapped on paper towl, washed 4× with 200 μL of ELISA wash buffer; the plates were tapped the plates on paper towl. One-hundred (100) μL of TMB was added and the plates shaken for 2 minutes—while watching for color development. One-hundred (100) μL Stop solution was added when light blue color developed. Plates were shaken and read at 450 nm.\nProgression of prostate cancer in patients treated with anti-androgen therapy usually involves one of several mechanisms of enhanced Androgen Receptor (AR) signaling, including increased intratumoral androgen synthesis, increased AR expression and AR mutations. PROTACs (PROteolysis TArgeting Chimera), which use bi-functional molecules that simultaneously bind a target of choice and an E3 ligase, cause ubiquitination via induced proximity and degradation of the targeted, pathological protein. As opposed to traditional target inhibition, which is a competitive process, degradation is a progressive process. As such, it is less susceptible to increases in endogenous ligand, target expression, or mutations in the target. Thus, this technology appears to be ideal for addressing the mechanisms of AR resistance in patients with prostate cancer. Data was analyzed and plotted using GraphPad Prism software.", "units": {"DC50": "nM"}, "values": [
      {"molecule": "CC(C)N(CC1CCN(c2cnc(C(=O)N[C@H]3CC[C@H](Oc4ccc(C#N)c(Cl)c4)CC3)cn2)CC1)[C@H]1C[C@H](Oc2ccc3c(c2)C(=O)N(C2CCC(=O)NC2=O)C32CC2)C1", "note": "(mixture of isomers) [compound 35, rac-N-((1r,4r)-4-(3-chloro-4-cyanophenoxy)cyclohexyl)-5-(4-((((1r,3r)-3-((2′-(2,6-dioxopiperidin-3-yl)-3′-oxospiro[cyclopropane-1,1′-isoindolin]-5′-yl)oxy)cyclobutyl)(isopropyl)amino)methyl)piperidin-1-yl)pyrazine-2-carboxamide]", "AR Dmax": "C (C < 50)"},
      {"molecule": "CC(C)N(CC1CCN(c2cnc(C(=O)N[C@H]3C(C)(C)[C@H](Oc4ccc(C#N)c(Cl)c4)C3(C)C)cn2)CC1)[C@H]1C[C@H](Oc2ccc3c(c2)C(=O)N(C2CCC(=O)NC2=O)C32CC2)C1", "note": "(mixture of isomers) [compound 37, rac-N-((1r,3r)-3-(3-chloro-4-cyanophenoxy)-2,2,4,4-tetramethylcyclobutyl)-5-(4-((((1r,3r)-3-((2′-(2,6-dioxopiperidin-3-yl)-3′-oxospiro[cyclopropane-1,1′-isoindolin]-5′-yl)oxy)cyclobutyl)(isopropyl)amino)methyl)piperidin-1-yl)pyrazine-2-carboxamide]", "AR Dmax": "C (C < 50)"},
      {"molecule": "CC(C)N(CC1CCN(c2cnc(C(=O)N[C@H]3C(C)(C)[C@H](Oc4ccc(C#N)c(Cl)c4)C3(C)C)cn2)CC1)[C@H]1C[C@H](Oc2ccc3c(c2)C2(CC2)N(C2CCC(=O)NC2=O)C3=O)C1", "note": "(mixture of isomers) [compound 38, rac-N-((1r,3r)-3-(3-chloro-4-cyanophenoxy)-2,2,4,4-tetramethylcyclobutyl)-5-(4-((((1r,3r)-3-((2′-(2,6-dioxopiperidin-3-yl)-3′-oxospiro[cyclopropane-1,1′-isoindolin]-6′-yl)oxy)cyclobutyl)(isopropyl)amino)methyl)piperidin-1-yl)pyrazine-2-carboxamide]", "AR Dmax": "C (C < 50)"},
      {"molecule": "COc1cc(N2CCN(CC3CCN(c4ccc(C(=O)N[C@H]5CC[C@H](Oc6ccc(C#N)c(Cl)c6)CC5)nn4)CC3)CC2)cc2c1C(=O)N(C1CCC(=O)NC1=O)C2=O", "note": "(mixture of isomers) [compound 32, rac-N-((1r,4r)-4-(3-chloro-4-cyanophenoxy)cyclohexyl)-6-(4-((4-(2-(2,6-dioxopiperidin-3-yl)-7-methoxy-1,3-dioxoisoindolin-5-yl)piperazin-1-yl)methyl)piperidin-1-yl)pyridazine-3-carboxamide]", "DC50": "< 1"},
      {"molecule": "CC1(C)[C@H](NC(=O)c2ccc(N3CCN(CCCCCOc4ccc5c(c4)CC(=O)N(C4CCC(=O)NC4=O)C5=O)CC3)nc2)C(C)(C)[C@H]1Oc1ccc(C#N)c(Cl)c1", "note": "(mixture of isomers) [compound 47, N-((1r,3r)-3-(3-chloro-4-cyanophenoxy)-2,2,4,4-tetramethylcyclobutyl)-6-(4-(5-((2-(2,6-dioxopiperidin-3-yl)-1,3-dioxo-1,2,3,4-tetrahydroisoquinolin-6-yl)oxy)pentyl)piperazin-1-yl)nicotinamide]", "AR Dmax": "B (50 <= B < 75)", "DC50": "1 to 10"},
      {"molecule": "CC1(C)[C@H](NC(=O)c2ccc(N3CCC(CN4CCN(c5ccn6c(=O)n(C7CCC(=O)NC7=O)nc6c5)CC4)CC3)cc2)C(C)(C)[C@H]1Oc1ccc(C#N)c(Cl)c1", "note": "(mixture of isomers) [compound 50, N-((1r,3r)-3-(3-chloro-4-cyanophenoxy)-2,2,4,4-tetramethylcyclobutyl)-4-(4-((4-(2-(2,6-dioxopiperidin-3-yl)-3-oxo-2,3-dihydro-[1,2,4]triazolo[4,3-a]pyridin-7-yl)piperazin-1-yl)methyl)piperidin-1-yl)benzamide]", "AR Dmax": "A (A >= 75)", "DC50": "< 1"},
      {"molecule": "CC1(C)[C@H](NC(=O)c2ccc(N3CCN(CCCCCOc4ccn5c(=O)n(C6CCC(=O)NC6=O)nc5c4)CC3)nc2)C(C)(C)[C@H]1Oc1ccc(C#N)c(Cl)c1", "note": "(mixture of isomers) [compound 48, N-((1r,3r)-3-(3-chloro-4-cyanophenoxy)-2,2,4,4-tetramethylcyclobutyl)-6-(4-(5-((2-(2,6-dioxopiperidin-3-yl)-3-oxo-2,3-dihydro-[1,2,4]triazolo[4,3-a]pyridin-7-yl)oxy)pentyl)piperazin-1-yl)nicotinamide]", "AR Dmax": "B (50 <= B < 75)", "DC50": "< 1"},
      {"molecule": "CC1(C)[C@H](NC(=O)c2ccc(N3CCC(CN4CCN(c5ccc6c(c5)C5(CC5)N(C5CCC(=O)NC5=O)C6=O)CC4)CC3)cc2)C(C)(C)[C@H]1Oc1ccc(C#N)c(Cl)c1", "note": "(mixture of isomers) [compound 34, rac-N-((1r,3r)-3-(3-chloro-4-cyanophenoxy)-2,2,4,4-tetramethylcyclobutyl)-4-(4-((4-(2′-(2,6-dioxopiperidin-3-yl)-3′-oxospiro[cyclopropane-1,1′-isoindolin]-6′-yl)piperazin-1-yl)methyl)piperidin-1-yl)benzamide]", "AR Dmax": "C (C < 50)"},
      {"molecule": "CC1(C)[C@H](NC(=O)c2ccc(N3CCN(CCCCCOc4ccc5c(c4)CCN(C4CCC(=O)NC4=O)C5=O)CC3)nc2)C(C)(C)[C@H]1Oc1ccc(C#N)c(Cl)c1", "note": "(mixture of isomers) [compound 46, N-((1r,3r)-3-(3-chloro-4-cyanophenoxy)-2,2,4,4-tetramethylcyclobutyl)-6-(4-(5-(2-(2,6-dioxopiperidin-3-yl)-1-oxo-1,2,3,4-tetrahydroisoquinolin-6-yloxy)pentyl)piperazin-1-yl)nicotinamide]", "AR Dmax": "A (A >= 75)", "DC50": "< 1"},
      {"molecule": "CC1(C)[C@H](NC(=O)c2ccc(N3CCN(CCCCCOc4ccc5nn(C6CCC(=O)NC6=O)c(=O)n5c4)CC3)nc2)C(C)(C)[C@H]1Oc1ccc(C#N)c(Cl)c1", "note": "(mixture of isomers) [compound 49, N-((1r,3r)-3-(3-chloro-4-cyanophenoxy)-2,2,4,4-tetramethylcyclobutyl)-6-(4-(5-((2-(2,6-dioxopiperidin-3-yl)-3-oxo-2,3-dihydro-[1,2,4]triazolo[4,3-a]pyridin-6-yl)oxy)pentyl)piperazin-1-yl)nicotinamide]", "AR Dmax": "A (A >= 75)", "DC50": "< 1"},
      {"molecule": "COc1cc(N2CCN(CC3CCN(c4ncc(C(=O)N[C@H]5C(C)(C)[C@H](Oc6ccc(C#N)c(Cl)c6)C5(C)C)cn4)CC3)CC2)cc2c1C(=O)N(C1CCC(=O)NC1=O)C2=O", "note": "(mixture of isomers) [compound 33, rac-N-((1r,3r)-3-(3-chloro-4-cyanophenoxy)-2,2,4,4-tetramethylcyclobutyl)-2-(4-((4-(2-(2,6-dioxopiperidin-3-yl)-7-methoxy-1,3-dioxoisoindolin-5-yl)piperazin-1-yl)methyl)piperidin-1-yl)pyrimidine-5-carboxamide]", "DC50": "< 1"},
      {"molecule": "CC1(C)[C@H](NC(=O)c2ccc(N3CCC(CCN4CCN(c5cc6c(cn5)C(=O)N(C5CCC(=O)NC5=O)C6=O)CC4)CC3)cc2)C(C)(C)[C@H]1Oc1ccc(C#N)c(Cl)c1", "note": "(mixture of isomers) [compound 51, rac-N-((1r,3r)-3-(3-chloro-4-cyanophenoxy)-2,2,4,4-tetramethylcyclobutyl)-4-(4-(2-(4-(2-(2,6-dioxopiperidin-3-yl)-1,3-dioxo-2,3-dihydro-1H-pyrrolo[3,4-c]pyridin-6-yl)piperazin-1-yl)ethyl)piperidin-1-yl)benzamide]", "AR Dmax": "A (A >= 75)", "DC50": "< 1"},
      {"molecule": "CC1(C)[C@H](NC(=O)c2ccc(N3CCC(CCN4CCN(c5ncc6c(n5)C(=O)N(C5CCC(=O)NC5=O)C6=O)CC4)CC3)cc2)C(C)(C)[C@H]1Oc1ccc(C#N)c(Cl)c1", "note": "(mixture of isomers) [compound 52, (rac)-N-((1r,3r)-3-(3-chloro-4-cyanophenoxy)-2,2,4,4-tetramethylcyclobutyl)-4-(4-(2-(4-(6-(2,6-dioxopiperidin-3-yl)-5,7-dioxo-6,7-dihydro-5H-pyrrolo[3,4-d]pyrimidin-2-yl)piperazin-1-yl)ethyl)piperidin-1-yl)benzamide]", "AR Dmax": "B (50 <= B < 75)", "DC50": "< 1"},
      {"molecule": "CC(C)N(CC1CCN(c2cnc(C(=O)N[C@H]3CC[C@H](Oc4ccc(C#N)c(Cl)c4)CC3)cn2)CC1)[C@H]1C[C@H](Oc2ccc3c(c2)C2(CC2)N(C2CCC(=O)NC2=O)C3=O)C1", "note": "(mixture of isomers) [compound 36, rac-N-((1r,4r)-4-(3-chloro-4-cyanophenoxy)cyclohexyl)-5-(4-((((1r,3r)-3-((2′-(2,6-dioxopiperidin-3-yl)-3′-oxospiro[cyclopropane-1,1′-isoindolin]-6′-yl)oxy)cyclobutyl)(isopropyl)amino)methyl)piperidin-1-yl)pyrazine-2-carboxamide]", "AR Dmax": "C (C < 50)"}
    ]}
  ]
}
